Reference: PubChem BioAssay (NCI)
Several values for one entry are separate records, joined by “and”; a condition that tells them apart may be missing. Identical values can stand only once.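 Results reflect a 48-hour exposure of cells in 96-well plates to compound at five concentrations. Here, GI50 denotes the concentration required for 50% inhibition of growth. TGI is the concentration that stops growth completely.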

Legend:
Assay in all cases: DTP human tumour cell line panel, 48 h
SNB-78 CNS = system: SNB-78 CNS
DMS 114 small cell lung = system: DMS 114 small cell lung
RXF-631 renal = system: RXF-631 renal
LXFL 529 NSCLC = system: LXFL 529 NSCLC
DLD-1 colon = system: DLD-1 colon
HOP-18 NSCLC = system: HOP-18 NSCLC
BT-549 breast = system: BT-549 breast
MCF7 breast = system: MCF7 breast
MDA-N = system: MDA-N

| Structure (SMILES) | TGI (DMS 114 small cell lung) | TGI (LXFL 529 NSCLC) | TGI (DLD-1 colon) | GI50 (BT-549 breast) | TGI (BT-549 breast) | TGI (MCF7 breast) | GI50 (MCF7 breast) | also measured |
| --- | --- | --- | --- | --- | --- | --- | --- | --- |
| COC(=O)C1=C(C)N(NC(N)=O)C2(N)N(NC(N)=O)C(C)=C(C(=O)OC)C12C(=O)OC (centres undefined) | > 100 µM | > 100 µM | > 100 µM |  |  |  |  | TGI (SNB-78 CNS): > 100 µM; TGI (RXF-631 renal): > 100 µM; TGI (HOP-18 NSCLC): > 100 µM |
| Cc1c(/C=N/NS(=O)(=O)c2ccccc2)no[n+]1[O-] | > 100 µM | > 100 µM |  |  |  |  |  | TGI (HOP-18 NSCLC): > 100 µM |
| O=C(O)CNc1c2ccccc2nc2ccccc12 | > 100 µM | > 100 µM | > 100 µM |  |  |  |  | TGI (RXF-631 renal): > 100 µM |
| C/C(O)=C(\N=O)C(=O)NCCc1ccccc1 | > 60 µM | > 100 µM | > 100 µM |  |  |  |  | TGI (SNB-78 CNS): > 100 µM; TGI (HOP-18 NSCLC): > 100 µM |
| Cc1ccc(C(CN(C)C)C(=O)c2ccccc2)cc1 (centres undefined) |  |  |  | 1.7 µM | 3.75 µM |  |  |  |
| O=C1NC(=S)NC(=O)C1=Cc1cc2c(cc1[N+](=O)[O-])OCO2 | 87.3 µM |  | > 100 µM |  |  |  |  | TGI (SNB-78 CNS): > 100 µM; TGI (RXF-631 renal): > 100 µM; TGI (HOP-18 NSCLC): > 100 µM |
| CC(=O)Nc1ccc(/C=C/[N+](=O)[O-])cc1 |  |  |  |  | 12.4 µM | 9.72 µM |  | TGI (MDA-N): 6.59 µM |
| Clc1ccc(Cl)c2[s+]snc12 | > 66.8 µM | > 100 µM | > 100 µM |  |  |  |  | TGI (SNB-78 CNS): > 100 µM; TGI (RXF-631 renal): > 100 µM; TGI (HOP-18 NSCLC): > 100 µM |
| Cc1c(N=Nc2ccc([N+](=O)[O-])cc2)nc2scc(-c3ccccc3)n12 |  |  |  |  | > 100 µM | > 100 µM |  | TGI (MDA-N): > 100 µM |
| CCCCn1c2cc(OCc3cn(-c4ccc(Cl)cc4)nn3)ccc2c2ccnc(C)c21 |  |  |  |  |  | > 33.3 µM | 7.14 µM |  |
| CN(C)CCCn1c2c(c3cnccc3c1=O)C(=O)c1ccccc1-2 |  |  |  | 1.2 µM | 8.43 µM | 1.76 µM | 0.244 µM |  |
| COc1ccc(/C=N/N=C(\N)NO)cc1OC | 92.5 µM | > 100 µM | > 100 µM |  |  |  |  | TGI (SNB-78 CNS): > 100 µM |
| CC(=O)Nc1ccc(C(=O)N2N=C(C)/C(=C/c3ccccc3O)C2=O)cc1 | > 100 µM |  | > 100 µM |  |  |  |  | TGI (SNB-78 CNS): > 100 µM; TGI (HOP-18 NSCLC): > 100 µM |
| N#CC(NNC(=O)c1ccccc1O)c1ccc(O)cc1 (centres undefined) | 8.62 µM | > 100 µM |  |  |  |  |  | TGI (HOP-18 NSCLC): > 100 µM |
| Nc1ccc2c(SCCSc3c4ccccc4nc4cc(N)ccc34)c3ccccc3nc2c1 |  |  |  |  | > 100 µM | > 100 µM |  |  |
| C(=N\Nc1ccccn1)/c1ccccn1 |  |  |  | 1.62 µM | > 100 µM | > 100 µM | 0.401 µM |  |
| CCCCCCCCCC(=O)CC(=O)c1ccc(O)cc1O |  | > 100 µM | > 100 µM |  |  |  |  | TGI (HOP-18 NSCLC): 81.9 µM |
| [N-]=[N+]=NC(c1cn(C2CC(O)C(CO)O2)c(=O)[nH]c1=O)C(Br)I (centres undefined) | > 100 µM | > 100 µM | > 100 µM |  |  |  |  | TGI (SNB-78 CNS): > 100 µM |
| Clc1ccc(-n2nnc(C3=NCCN3)c2-c2ccccc2)cc1 | > 100 µM | > 100 µM | > 100 µM |  |  |  |  | TGI (SNB-78 CNS): > 100 µM; TGI (HOP-18 NSCLC): > 100 µM |

| Structure (SMILES) | TGI (DMS 114 small cell lung) | TGI (LXFL 529 NSCLC) | TGI (DLD-1 colon) | GI50 (BT-549 breast) | TGI (BT-549 breast) | TGI (MCF7 breast) | GI50 (MCF7 breast) | also measured |
| --- | --- | --- | --- | --- | --- | --- | --- | --- |
| CC(=O)CCCCCCCCCCCC[C@@H]1CC[C@H](C)[C@H](O)N1 | > 100 µM | > 100 µM | > 100 µM |  |  |  |  | TGI (SNB-78 CNS): > 100 µM; TGI (HOP-18 NSCLC): > 100 µM |
| N#CC(=S)Nc1cccc(Cl)c1 |  |  |  |  | > 100 µM | > 100 µM |  | TGI (MDA-N): > 100 µM |
| COP(=O)(OC)C(NC(c1ccccc1)c1ccccc1)c1ccc2c(c1)OCO2 (centres undefined) |  |  |  | 20.6 µM | 38.8 µM | 79 µM | 26 µM |  |
| O=c1c2ccccc2c2ccccc2c(=O)n1-c1cc2c3ccccc3ccc2c2ccccc12 |  |  |  |  | > 100 µM | > 100 µM |  | TGI (MDA-N): > 100 µM |
| Cc1ccc2c(c1)nc(C(=O)c1ccco1)c(C(F)(F)F)[n+]2[O-] |  |  |  | 78.5 µM | > 100 µM | > 100 µM | > 100 µM |  |
| COc1ccc(-n2c(SCc3cc(OC)c(OC)c(OC)c3)nc3ccc(C)cc3c2=O)c(OC)c1 |  |  |  | 4.31 µM | > 100 µM | > 100 µM | 3.23 µM |  |
| CC12CCC3C(CC=C4CC(O)CCC43C)C1C/C(=C\N1CCCC1)C2=O (centres undefined) |  |  |  | 41 µM | > 100 µM | > 100 µM | > 100 µM |  |
| O=C(O)c1cc2ccccc2c(O)c1O |  |  |  |  | 30 µM | 28.4 µM |  | TGI (MDA-N): 4.01 µM |
| COCCn1cc(-c2csc(-c3c[nH]c4ccccc34)n2)c2cccnc21 |  |  |  | 4.45 µM | > 100 µM | > 100 µM | 1.74 µM |  |
| CC1OC(n2ncc(=O)[nH]c2=O)C=CC1=O (centres undefined) |  | > 100 µM | > 100 µM |  |  |  |  | TGI (SNB-78 CNS): 86.8 µM and > 100 µM; TGI (RXF-631 renal): 32.5 µM and 43.5 µM; GI50 (DLD-1 colon): 77.2 µM and 31.2 µM |
| O=c1cccc(C#CC#C[C@H]2O[C@@H]2CO)o1 |  |  |  | 1.19 µM | 3.02 µM | 4.28 µM | 0.472 µM |  |
| CCCC1c2c(ccc3ccccc23)Oc2ccc3ccccc3c21 |  |  |  |  | > 100 µM | 35.6 µM |  | TGI (MDA-N): > 100 µM |
| CC(C)C(=O)/C=C/c1ccccc1 |  | > 100 µM | > 100 µM |  |  |  |  | TGI (SNB-78 CNS): > 100 µM; TGI (HOP-18 NSCLC): > 100 µM |
| N[C@@H](Cc1c[nH]c2ccccc12)C(=O)NC1CCN(C(=O)c2c[nH]c3ccccc23)CC1 |  |  |  | > 100 µM | > 100 µM | > 100 µM | > 100 µM |  |
| OC1(C(O)(c2ccc(-c3ccccc3)cc2)c2ccc(-c3ccccc3)cc2)CCCCC1 |  |  |  |  | > 100 µM | > 100 µM |  | TGI (MDA-N): > 100 µM |
| CSc1nc2c(c(=O)[nH]1)N=C1c3ccccc3C(=O)C1C(c1ccc(F)cc1)N2 (centres undefined) |  |  |  | 8.5 µM | 41.2 µM | 62.4 µM | 5.18 µM |  |
| N#Cc1c(C(=O)c2ccccc2)cnn1-c1ccccc1 |  |  |  | > 25 µM | > 25 µM | > 25 µM | > 25 µM |  |
| Oc1ccc(/C=N\Nc2ccccn2)c(O)c1 |  |  |  | 4.87 µM | > 100 µM | 11 µM | 1.76 µM |  |
| C/C(=N/S(=O)(=O)c1ccc(Cl)c(Cl)c1)OCC(C)(C)C |  |  |  |  | > 100 µM | > 100 µM |  | TGI (MDA-N): > 100 µM |
